# Measurements taken from US20240383843A1, “MC3-Type Lipids” (NanoVation Therapeutics Inc., priority 2021, published 2024).
# How the values were obtained:
# [1] = system: FVII gene; conditions: mice, siRNA formulation; Jayaraman et al., 2012; cited from earlier work
# [2] = system: 22Rv1 cells modified to stably express luciferase; assay: Luciferase knockdown by siRNA-containing LNPs in 22Rv1 cells stably expressing luciferase; format: cell-based; conditions: Homo sapiens, siRNA-LNP 50/10/38.5/1.5 mol %, N/P 3, read-out: half maximal effective siRNA concentration (EC50)
# Method: The LNPs contain 50/10/38.5/1.5 mol % of ionizable lipid/DSPC/chol/PEG-DMG (N/P=3) and the siRNA encodes luciferase.
# An siRNA targeted against firefly luciferase purchased from Integrated DNA Technologies (IDT, Coralville, IA) was used to assess ability of LNP to knockdown firefly luciferase in a cell line.
# LNP formulations containing the ionizable lipids, nor-MC3 or MC3, DSPC, cholesterol, and PEG-DMG were prepared containing siRNA encoding luciferase as described above. The lipid nanoparticles comprise 50/10/38.5/1.5 mol % of ionizable lipid/DSPC/chol/PEG-DMG and the nitrogen-to-phosphorus ratio (N/P) was 3.
EC50 [2] [mg/L],Compound,ED50 for FVII gene silencing [1] [mg/kg]
,CCCCC/C=C\C/C=C\CCCCCCCCC1(CCCCCCCC/C=C\C/C=C\CCCCC)OCC(CCN(C)C)O1 (centres unmarked) [KC2],0.1
0.164,"CCCCC/C=C\C/C=C\CCCCCCCC(CCCCCCC/C=C\C/C=C\CCCCC)OC(=O)CCCN(C)C [nor-MC3, (6Z,9Z,26Z,29Z)-Pentatriaconta-6,9,26,29-tetraen-18-yl 4-(dimethylamino)butanoate]",
